The record followed here is paper PMC7279355, “Preparation of Biphenyl-Conjugated Bromotyrosine for Inhibition of PD-1/PD-L1 Immune Checkpoint Interactions” (International Journal of Molecular Sciences, 2020).

In general, IC50 refers to the point on the concentration scale where inhibition reaches its midpoint.

Numbered stars: 1 amine (or outer) side, 2 acyl side, 3 side chain; on linkers, the order of the positions; unused ones are H or OH. Square brackets hold non-standard residues; d marks the D form. Peptide text beside a SMILES is read from it. X1 = Cc1c(COc2ccc(C[C@H](N[*:1])C(=O)[*:2])cc2Br)cccc1-c1ccccc1

The target in one test is T1, PD-1/PD-L1 interaction (Homo sapiens, UniProt Q9NZQ7).
T1 construct: purchased PerkinElmer AL356 HV/C/F
T1 sequence (Q9NZQ7 19-238 limits assumed): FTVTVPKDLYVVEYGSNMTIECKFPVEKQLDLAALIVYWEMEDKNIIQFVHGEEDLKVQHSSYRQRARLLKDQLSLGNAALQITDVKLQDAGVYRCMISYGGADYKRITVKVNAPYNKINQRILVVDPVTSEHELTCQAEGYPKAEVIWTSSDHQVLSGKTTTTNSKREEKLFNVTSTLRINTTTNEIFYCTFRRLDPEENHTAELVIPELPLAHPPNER
In words: AlphaLISA amplified luminescence proximity homogeneous assay, inhibition of PD-1/PD-L1 binding. Particulars: AlphaLISA, His-tagged PD-L1 and biotin-conjugated PD-1, 25 °C, 90 min. (In Alpha technology, singlet oxygen from a donor bead excites a nearby acceptor bead.)
Excerpt: To evaluate the binding affinities of the compounds for PD-L1, we used the amplified luminescence proximity homogeneous assay (Alpha) by using the AlphaLISA® assay kit [38]. This assay is based on photoinduced energy transfer between donor and acceptor beads conjugated to PD-1 and PD-L1, respectively (Figure S6).
In this assay, direct binding of an inhibitor to PD-L1 is detected by photoinduced energy transfer (Figure S6). Biotin-conjugated PD-1 is attached to streptavidin-coated donor beads and histidine (His)-tagged PD-L1 is attached to anti-His-conjugated acceptor beads. Photoexcitation of the donor beads at 680 nm yields singlet oxygen.
Positive and negative technical controls were included in parallel. Positive controls contained buffer (2 μL) in place of solution 1–10, and negative controls contained only the beads (2 μL each) and buffer (6 μL).
The reaction samples (10 μM) were placed in a 384-well microplate and photoirradiated at 680 nm from the top. […] IC50 values were estimated from a sigmoidal curve of fluorescence intensity vs. inhibitor concentration using a relative weighting method (1/Y^2 weighting) with GraphPad Prism 8 (GraphPad Software Inc., San Diego, CA, USA).
Compound `CSCC[C@H](NC(=O)[C@H](CCCCN)NC(=O)[C@H](CC(N)=O)NC(=O)[C@H](Cc1ccc(OCc2cccc(-c3ccccc3)c2C)c(Br)c1)NC(=O)[C@H](CCCNC(=N)N)NC(=O)[C@H](CCC(=O)O)NC(=O)[C@@H](N)CS)C(=O)O` [CERXNKM] (H-CER[X1]NKM-OH) yielded an IC50 of 308 µM. The same measure, in the same setting: the value for `Cc1c(CO)cccc1-c1ccccc1` [Compound1, 3-hydroxymethyl-2-methylbiphenyl] was 309 µM. For the compound `CC(C)(C)OC(=O)[C@H](Cc1ccc(O)c(Br)c1)NC(=O)OCC1c2ccccc2-c2ccccc21` [Compound4, (S)-tert-Butyl 2-({[(9H-fluoren-9-yl)methoxy]carbonyl}amino)-3-(3-bromo-4-hydroxyphenyl)propanoate], the 50% inhibitory concentration (IC50) amounted to 1060 µM.

`Cc1c(COc2ccc(C[C@H](NC(=O)OCC3c4ccccc4-c4ccccc43)C(=O)OC(C)(C)C)cc2Br)cccc1-c1ccccc1` [Compound5, (S)-tert-Butyl 2-({[(9H-fluoren-9-yl)methoxy]carbonyl}amino)-3-{3-bromo-4-[(2-methyl-1,1’-biphenyl-3-yl)methoxy]phenyl}propanoate]: the concentration for half-maximal inhibition (IC50) turned out to be 897 µM. Compound `Cc1c(COc2ccc(C[C@H](NC(=O)OCC3c4ccccc4-c4ccccc43)C(=O)O)cc2Br)cccc1-c1ccccc1` [Compound6, (S)-2-({[(9H-fluoren-9-yl)methoxy]carbonyl}amino)-3-{3-bromo-4-[(2-methyl-1,1’-biphenyl-3-yl)methoxy]phenyl}propanoic acid] gave an IC50 of 1420 µM. This IC50 lies about 1.6-fold higher than the previous one. `CC[C@H](C)[C@H](NC(=O)[C@H](CC(N)=O)NC(=O)[C@H](CC(N)=O)NC(=O)[C@H](Cc1ccc(OCc2cccc(-c3ccccc3)c2C)c(Br)c1)NC(=O)[C@H](CCCNC(=N)N)NC(=O)[C@H](Cc1c[nH]c2ccccc12)NC(=O)[C@@H](N)Cc1ccccc1)C(=O)O` [FWRXNNI] (H-FWR[X1]NNI-OH) gave a concentration for half-maximal inhibition (IC50) of 312 µM. For `Cc1c(COc2ccc(C[C@H](NC(=O)CN)C(=O)O)cc2Br)cccc1-c1ccccc1` [GX], the concentration for half-maximal inhibition (IC50) was 448 µM. On the same count and under the same terms, as for `Cc1c(COc2ccc(C[C@H](NC(=O)[C@@H](N)CCCNC(=N)N)C(=O)N[C@@H](CC(N)=O)C(=O)O)cc2Br)cccc1-c1ccccc1` [RXN], the figure is 405 µM; as for `Cc1c(COc2ccc(C[C@H](NC(=O)[C@@H](N)Cc3c[nH]c4ccccc34)C(=O)NCC(=O)O)cc2Br)cccc1-c1ccccc1` [WXG], 405 µM. The same measure, in the same setting: the value for `Cc1c(COc2ccc(C[C@H](N)C(=O)O)cc2Br)cccc1-c1ccccc1` [X, (S)-2-amino-3-[3-bromo-4-{(2-methyl-1,1′-biphenyl-3-yl)methoxy}phenyl]propanoic acid] was 1.5 µM; that for `Cc1c(COc2ccc(C[C@H](N)C(=O)N[C@@H](C)C(=O)O)cc2Br)cccc1-c1ccccc1` [XA] was 22.3 µM; that for `Cc1c(COc2ccc(C[C@H](N)C(=O)NCC(=O)NCC(=O)O)cc2Br)cccc1-c1ccccc1` [XGG] was 6510 µM. Turning to `Cc1c(COc2ccc(C[C@H](N)C(=O)NCC(=O)O)cc2Br)cccc1-c1ccccc1` [XG], the 50% inhibitory concentration (IC50) was determined as 2.1 µM. As for `Cc1c(COc2ccc(C[C@H](N)C(=O)N[C@@H](CO)C(=O)O)cc2Br)cccc1-c1ccccc1` [XS], the IC50 was 2650 µM.

Compound `Cc1c(COc2ccc(C[C@H](N)C(=O)N[C@@H](Cc3c[nH]c4ccccc34)C(=O)O)cc2Br)cccc1-c1ccccc1` [XW] returned a concentration for half-maximal inhibition (IC50) of 845 µM. Against the preceding compound, the IC50 is about 3.1-fold lower.

Still in this test, the particulars now being: AlphaLISA, positive control.
Consider “nivolumab: anti-PD-1 mAb, positive control [reference compound]”, for which the IC50 worked out at 0.0051 µM.

The test is the same for the next values; noted with them: X (1.5 μM) vs BMS-8 ([…]).
Turning to `Cc1c(COc2ccc(C[C@H](N)C(=O)O)cc2Br)cccc1-c1ccccc1` [X, (S)-2-amino-3-[3-bromo-4-{(2-methyl-1,1′-biphenyl-3-yl)methoxy}phenyl]propanoic acid], the “improvement of IC50 relative to BMS-8” value was “about five”.
